Source: the NIST ThermoML archive (doi:10.1021/je400722h)

Legend:
[1] = xn = mol fraction of the nth substance listed; conditions: 101 kPa, Liquid; for speed of sound: Pulse-echo method; for mass density: Vibrating tube method
[2] = molar heat capacity at constant pressure; xn = mol fraction of the nth substance listed; conditions: 101 kPa, Liquid, Small sample (50 mg) DSC

Cc1ccccc1Cl [2-chlorotoluene] + C1COCCO1
Conditions | mass density [kg/m3] | molar heat capacity at constant pressure [J/K/mol] | speed of sound [m/s]
[1], 298.15 K, x1 = 0.0984 | 1033.4 | – | 1338.2
[1], 298.15 K, x1 = 0.1643 | 1036.9 | – | 1333.2
[1], 298.15 K, x1 = 0.2124 | 1039.5 | – | 1329.9
[1], 298.15 K, x1 = 0.2837 | 1043.3 | – | 1325.3
[1], 298.15 K, x1 = 0.3427 | 1046.3 | – | 1321.8
[1], 298.15 K, x1 = 0.3918 | 1048.9 | – | 1319.1
[1], 298.15 K, x1 = 0.4375 | 1051.2 | – | 1316.8
[1], 298.15 K, x1 = 0.4864 | 1053.6 | – | 1314.5
[1], 298.15 K, x1 = 0.5237 | 1055.5 | – | 1312.8
[1], 298.15 K, x1 = 0.5765 | 1058.1 | – | 1310.7
[1], 298.15 K, x1 = 0.6237 | 1060.4 | – | 1308.8
[1], 298.15 K, x1 = 0.6801 | 1063 | – | 1306.9
[1], 298.15 K, x1 = 0.7135 | 1064.6 | – | 1305.8
[1], 298.15 K, x1 = 0.7737 | 1067.4 | – | 1304
[1], 298.15 K, x1 = 0.8125 | 1069.2 | – | 1302.9
[1], 298.15 K, x1 = 0.8635 | 1071.4 | – | 1301.7
[1], 298.15 K, x1 = 0.9012 | 1073.1 | – | 1300.8
[1], 298.15 K, x1 = 0.9415 | 1074.9 | – | 1299.9
[1], 303.15 K, x1 = 0.0984 | 1027.7 | – | 1316.6
[1], 303.15 K, x1 = 0.1643 | 1031.3 | – | 1312
[1], 303.15 K, x1 = 0.2124 | 1033.9 | – | 1308.9
[1], 303.15 K, x1 = 0.2837 | 1037.8 | – | 1304.6
[1], 303.15 K, x1 = 0.3427 | 1040.9 | – | 1301.5
[1], 303.15 K, x1 = 0.3918 | 1043.5 | – | 1299
[1], 303.15 K, x1 = 0.4375 | 1045.9 | – | 1296.9
[1], 303.15 K, x1 = 0.4864 | 1048.4 | – | 1294.8
[1], 303.15 K, x1 = 0.5237 | 1050.3 | – | 1293.2
[1], 303.15 K, x1 = 0.5765 | 1052.9 | – | 1291.2
[1], 303.15 K, x1 = 0.6237 | 1055.2 | – | 1289.6
[1], 303.15 K, x1 = 0.6801 | 1057.9 | – | 1287.7
[1], 303.15 K, x1 = 0.7135 | 1059.5 | – | 1286.7
[1], 303.15 K, x1 = 0.7737 | 1062.3 | – | 1285
[1], 303.15 K, x1 = 0.8125 | 1064.1 | – | 1284.1
[1], 303.15 K, x1 = 0.8635 | 1066.4 | – | 1283
[1], 303.15 K, x1 = 0.9012 | 1068.1 | – | 1282.2
[1], 303.15 K, x1 = 0.9415 | 1069.9 | – | 1281.5
[1], 308.15 K, x1 = 0.0984 | 1022 | – | 1295.1
[1], 308.15 K, x1 = 0.1643 | 1025.6 | – | 1290.8
[1], 308.15 K, x1 = 0.2124 | 1028.3 | – | 1287.9
[1], 308.15 K, x1 = 0.2837 | 1032.3 | – | 1284
[1], 308.15 K, x1 = 0.3427 | 1035.5 | – | 1281.2
[1], 308.15 K, x1 = 0.3918 | 1038.2 | – | 1279
[1], 308.15 K, x1 = 0.4375 | 1040.6 | – | 1277
[1], 308.15 K, x1 = 0.4864 | 1043.1 | – | 1275.1
[1], 308.15 K, x1 = 0.5237 | 1045.1 | – | 1273.8
[1], 308.15 K, x1 = 0.5765 | 1047.7 | – | 1271.9
[1], 308.15 K, x1 = 0.6237 | 1050.1 | – | 1270.4
[1], 308.15 K, x1 = 0.6801 | 1052.8 | – | 1268.7
[1], 308.15 K, x1 = 0.7135 | 1054.4 | – | 1267.8
[1], 308.15 K, x1 = 0.7737 | 1057.2 | – | 1266.3
[1], 308.15 K, x1 = 0.8125 | 1059 | – | 1265.4
[1], 308.15 K, x1 = 0.8635 | 1061.4 | – | 1264.4
[1], 308.15 K, x1 = 0.9012 | 1063.1 | – | 1263.8
[1], 308.15 K, x1 = 0.9415 | 1064.9 | – | 1263.3
[2], 298.15 K, x1 = 0.0903 | – | 155.43 | –
[2], 298.15 K, x1 = 0.1278 | – | 156.54 | –
[2], 298.15 K, x1 = 0.1654 | – | 157.65 | –
[2], 298.15 K, x1 = 0.2006 | – | 158.69 | –
[2], 298.15 K, x1 = 0.2343 | – | 159.68 | –
[2], 298.15 K, x1 = 0.2765 | – | 160.9 | –
[2], 298.15 K, x1 = 0.3004 | – | 161.59 | –
[2], 298.15 K, x1 = 0.3421 | – | 162.78 | –
[2], 298.15 K, x1 = 0.3876 | – | 164.06 | –
[2], 298.15 K, x1 = 0.4002 | – | 164.41 | –
[2], 298.15 K, x1 = 0.4327 | – | 165.31 | –
[2], 298.15 K, x1 = 0.4726 | – | 166.39 | –
[2], 298.15 K, x1 = 0.5117 | – | 167.43 | –
[2], 298.15 K, x1 = 0.5401 | – | 168.17 | –
[2], 298.15 K, x1 = 0.5915 | – | 169.49 | –
[2], 298.15 K, x1 = 0.6305 | – | 170.45 | –
[2], 298.15 K, x1 = 0.6721 | – | 171.46 | –
[2], 298.15 K, x1 = 0.7198 | – | 172.57 | –
[2], 298.15 K, x1 = 0.7401 | – | 173.03 | –
[2], 298.15 K, x1 = 0.7623 | – | 173.53 | –
[2], 298.15 K, x1 = 0.8004 | – | 174.36 | –
[2], 298.15 K, x1 = 0.8432 | – | 175.26 | –
[2], 298.15 K, x1 = 0.8856 | – | 176.11 | –
[2], 298.15 K, x1 = 0.9165 | – | 176.7 | –
[2], 303.15 K, x1 = 0.0903 | – | 156.69 | –
[2], 303.15 K, x1 = 0.1278 | – | 157.84 | –
[2], 303.15 K, x1 = 0.1654 | – | 158.98 | –
[2], 303.15 K, x1 = 0.2006 | – | 160.04 | –
[2], 303.15 K, x1 = 0.2343 | – | 161.05 | –
[2], 303.15 K, x1 = 0.2765 | – | 162.3 | –
[2], 303.15 K, x1 = 0.3004 | – | 163 | –
[2], 303.15 K, x1 = 0.3421 | – | 164.21 | –
[2], 303.15 K, x1 = 0.3876 | – | 165.52 | –
[2], 303.15 K, x1 = 0.4002 | – | 165.87 | –
[2], 303.15 K, x1 = 0.4327 | – | 166.79 | –
[2], 303.15 K, x1 = 0.4726 | – | 167.9 | –
[2], 303.15 K, x1 = 0.5117 | – | 168.97 | –
[2], 303.15 K, x1 = 0.5401 | – | 169.73 | –
[2], 303.15 K, x1 = 0.5915 | – | 171.09 | –
[2], 303.15 K, x1 = 0.6305 | – | 172.09 | –
[2], 303.15 K, x1 = 0.6721 | – | 173.13 | –
[2], 303.15 K, x1 = 0.7198 | – | 174.28 | –
[2], 303.15 K, x1 = 0.7401 | – | 174.76 | –
[2], 303.15 K, x1 = 0.7623 | – | 175.27 | –
[2], 303.15 K, x1 = 0.8004 | – | 176.13 | –
[2], 303.15 K, x1 = 0.8432 | – | 177.05 | –
[2], 303.15 K, x1 = 0.8856 | – | 177.92 | –
[2], 303.15 K, x1 = 0.9165 | – | 178.52 | –
[2], 308.15 K, x1 = 0.0903 | – | 158.03 | –
[2], 308.15 K, x1 = 0.1278 | – | 159.2 | –
[2], 308.15 K, x1 = 0.1654 | – | 160.36 | –
[2], 308.15 K, x1 = 0.2006 | – | 161.44 | –
[2], 308.15 K, x1 = 0.2343 | – | 162.46 | –
[2], 308.15 K, x1 = 0.2765 | – | 163.73 | –
[2], 308.15 K, x1 = 0.3004 | – | 164.44 | –
[2], 308.15 K, x1 = 0.3421 | – | 165.66 | –
[2], 308.15 K, x1 = 0.3876 | – | 166.99 | –
[2], 308.15 K, x1 = 0.4002 | – | 167.35 | –
[2], 308.15 K, x1 = 0.4327 | – | 168.28 | –
[2], 308.15 K, x1 = 0.4726 | – | 169.41 | –
[2], 308.15 K, x1 = 0.5117 | – | 170.5 | –
[2], 308.15 K, x1 = 0.5401 | – | 171.28 | –
[2], 308.15 K, x1 = 0.5915 | – | 172.67 | –
[2], 308.15 K, x1 = 0.6305 | – | 173.7 | –
[2], 308.15 K, x1 = 0.6721 | – | 174.77 | –
[2], 308.15 K, x1 = 0.7198 | – | 175.95 | –
[2], 308.15 K, x1 = 0.7401 | – | 176.44 | –
[2], 308.15 K, x1 = 0.7623 | – | 176.97 | –
[2], 308.15 K, x1 = 0.8004 | – | 177.84 | –
[2], 308.15 K, x1 = 0.8432 | – | 178.78 | –
[2], 308.15 K, x1 = 0.8856 | – | 179.66 | –
[2], 308.15 K, x1 = 0.9165 | – | 180.26 | –
